Measured values from patent US6811790B1, “Storage stable pesticide formulations containing azadirachtin” (E.I.D. Parry (India) Ltd., priority 2000, dated 2004).
Where two headings read alike, the source gives them in different places.

Legend:
[1] = 25 days at 29+/−1° C., cited from earlier work
[2] = Stability of azadirachtin A in a formulation, accelerated storage test and real time conditions; format: physicochemical
Procedure: The behavior of azadirachtin in real time and in accelerated conditions (especially at 54° C.) is quite different.

Compound: C/C=C(\C)C(=O)O[C@H]1C[C@@H](OC(C)=O)[C@@]2(C(=O)OC)CO[C@H]3[C@@H](O)[C@@](C)([C@]45O[C@@]4(C)[C@@H]4C[C@H]5O[C@@H]5OC=C[C@@]54O)[C@H]4[C@]1(CO[C@]4(O)C(=O)OC)[C@@H]32 [azadirachtin A]
- degradation of azadirachtin A ([1]; in ethanol and water): about 80%
- degradation of azadirachtin A ([1]; in methanol and acetone): 50%
- degradation of azadirachtin A ([1]; in methylene chloride, carbon tetrachloride and chloroform): 75-80%
- degradation of azadirachtin A ([2]; accelerated storage test at 54° C., after 14 days): 66%
- degradation of azadirachtin A per month ([2]; real time conditions at 20° C.): approximately 0.9 % per month
- total degradation of azadirachtin A per year ([2]; real time conditions at 20° C.): 11 % per year
